IC50 data for 15 molecules are collected here from patent US20260207605A1, “KRAS G12D INHIBITORS AND USES THEREOF” (Abbisko Therapeutics Co., Ltd., priority 2022, published 2026).

Read-outs that look alike come from different tables or passages of the source.

One test deals with AGS. The test is described as follows: Anti-proliferative 2D CTG assay, AGS. The class given is cell-based. The following applies: AGS cells, 4 days incubation, read-out: AGS cell IC50. On the procedure: (§1) 1.1 Day 0 Cell Culture and Plating
(§2) Cells in a logarithmic growth phase were harvested and the cells were counted by using a […]. Cell viability was tested by using a trypan blue exclusion method to ensure that cell viability was above 90%. The cell concentration was adjusted to the desired final density, and 90 μL of cell suspension was added to a 96-well plate, then the cells were incubated overnight at 37° C., 5% CO2 and 95% humidity.
(§3) 10 μL PBS was added to each well of the TO plate containing cells. The CTG reagent was thawed and the plate was equilibrated to room temperature for 30 minutes. The CTG solution of 50 µL/well was added to each well. The cells were lysed by shaking on an orbital shaker for 5 minutes. The plate was left at room temperature for 20 minutes to stabilize the luminescence signal. The TO fluorescence signal value was read.
(§4) From the 10 mM stock solution, with a ratio of 1:5, 9-point serial dilutions were performed. The 10× medium containing the compound was transferred into corresponding wells of the 96 wells. The final maximum compound concentration was […] and the final DMSO concentration was 0.1%. The 96-well plate was placed in a 37° C. incubator and incubated for 4 days.
(§5) 50 μL/well of detection reagent (CTG) was added to the cells, and the signal was read in an Envision machine.
(§6) The percent inhibition (%) at each compound concentration was calculated from the signal in the HPE and ZPE control wells and the fluorescence signal in the individual compound wells included in each assay plate. […] The compound concentration required for inhibitory concentration at 50% (IC50) was determined using a four-parameter logarithmic dose-response equation by testing the concentration of the compound and the inhibition percentage value. The endpoint value (IC50) of the reference compound was assessed in each experiment as a quality control measure. If the endpoint value is within three times the expected value, the experiment may be considered acceptable.

The next test has as its target KRAS^G12D/cRAF (Homo sapiens, UniProt P01116, G12D). Description: KRAS G12D/cRAF binding test (Alphalisa). The conditions noted are these: His-tagged KRAS G12D with GMPPNP, GST-tagged cRAF. The protocol:
The compound was dissolved in 100% DMSO at a starting concentration of 5 mM and diluted in DMSO with a 3-fold serial dilution method for a total of 8 concentration points. 1 μL of the compound or DMSO at each concentration point was added into 99 μL of the experimental buffer to obtain 10× stock solution.
The ratio for each compound concentration was calculated from the signal of the DMSO control group contained in each assay plate and the Alphalisa signal in each compound well. The compound concentration required for inhibitory concentration at 50% (IC50) was determined using a four-parameter logarithmic dose-response equation by testing the concentration of the compound and the value of the ratio. The endpoint value (IC50) of the reference compound was assessed in each experiment as a quality control measure. If the endpoint value is within three times the expected value, the experiment may be considered acceptable.

In a further test the test system is AsPC-1. The test is described as follows: Anti-proliferative 2D CTG assay, AsPC-1. The class given is cell-based. The following applies: Homo sapiens, ASPC1, 96 h, AsPC-1 cells, 4 days incubation, read-out: AsPC-1 cell IC50. The protocol: as §1, §2, §3, §4, §5, §6

Chain of KRAS^G12D/cRAF (P01116 1-188 isoform P01116-2 G12D): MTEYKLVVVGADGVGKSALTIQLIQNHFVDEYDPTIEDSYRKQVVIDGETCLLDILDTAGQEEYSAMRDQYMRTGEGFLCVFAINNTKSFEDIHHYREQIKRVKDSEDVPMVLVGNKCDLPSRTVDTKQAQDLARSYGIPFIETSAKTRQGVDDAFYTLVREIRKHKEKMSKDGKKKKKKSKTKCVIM

The IC50 is the concentration that inhibits the measured activity by half. In the case of `[2H]C([2H])([2H])OCC12CCC(CN(c3nc(OCC45CC(=C)CN4CC(=C)C5)nc4c(F)c(-c5cc(O)cc6ccc(F)c(C#C)c56)nc(OC)c34)C1)N2` (single isomer, unassigned) [Example 173], the IC50 with AGS (Homo sapiens, AGS, 96 h) came out at 26.4 nM.
With `[2H]C([2H])([2H])OCC12CCC(CN(c3nc(OCC45CC(=C)CN4CC(=C)C5)nc4c(F)c(-c5cc(O)cc6ccc(F)c(C#C)c56)ncc34)C1)N2` (centres unmarked) [Example 1, 4-(2-((2,6-dimethylenetetrahydro-1H-pyrrolizin-7a(5H)-yl)methoxy)-8-fluoro-4-(1-((methoxy-d3)methyl)-3,8-diazabicyclo[3.2.1]octan-3-yl)pyrido[4,3-d]pyrimidin-7-yl)-5-ethynyl-6-fluoronaphthalen-2-ol], the IC50 on KRAS^G12D/cRAF turned out to be 37.4 nM; with AGS (Homo sapiens, AGS, 96 h), 22.9 nM.
The matching figures for `C#Cc1c(F)ccc2cc(O)cc(-c3ncc4c(N5CC6CCC(C(C)(C)O)(C5)N6)nc(OCC56CC(=C)CN5CC(=C)C6)nc4c3F)c12` (centres unmarked) [Example 2, 4-(2-((2,6-dimethylenetetrahydro-1H-pyrrolizin-7a(5H)-yl)methoxy)-8-fluoro-4-(1-(2-hydroxypropan-2-yl)-3,8-diazabicyclo[3.2.1]octan-3-yl)pyrido[4,3-d]pyrimidin-7-yl)-5-ethynyl-6-fluoronaphthalen-2-ol]: 48.2 nM and 251 nM.
In the case of `C#Cc1c(F)ccc2cc(O)cc(-c3ncc4c(N5C[C@@H]6CC[C@](CC)(C5)N6)nc(OCC56CC(=C)CN5CC(=C)C6)nc4c3F)c12` [Example 5, 4-(2-((2,6-dimethylenetetrahydro-1H-pyrrolizin-7a(5H)-yl)methoxy)-4-((1R,5S)-1-ethyl-3,8-diazabicyclo[3.2.1]octan-3-yl)-8-fluoropyrido[4,3-d]pyrimidin-7-yl)-5-ethynyl-6-fluoronaphthalen-2-ol], the IC50 at KRAS^G12D/cRAF was determined as 16.5 nM; in the test on AsPC-1, 45.8 nM; in the test with AGS (Homo sapiens, AGS, 96 h) it was 14.1 nM.
For the molecule `[2H]C([2H])([2H])C12CCC(CN(c3nc(OCC45CC(=C)CN4CC(=C)C5)nc4c(F)c(-c5cc(O)cc6ccc(F)c(C#C)c56)ncc34)C1)N2` (centres unmarked) [Example 6, 4-(2-((2,6-dimethylenetetrahydro-1H-pyrrolizin-7a(5H)-yl)methoxy)-8-fluoro-4-(1-(methyl-d3)-3,8-diazabicyclo[3.2.1]octan-3-yl)pyrido[4,3-d]pyrimidin-7-yl)-5-ethynyl-6-fluoronaphtha len-2-ol], the half-maximal inhibitory concentration (IC50) came out at 3.2 nM at KRAS^G12D/cRAF; 48.9 nM with AsPC-1; 14.3 nM in the test on AGS (Homo sapiens, AGS, 96 h).
Take `C#Cc1c(F)ccc2cc(O)cc(-c3ncc4c(N5CC6CCC(COC)(C5)N6)nc(OCC56CC(=C)CN5CC(=C)C6)nc4c3F)c12` (centres unmarked) [Example 8, 4-(2-((2,6-dimethylenetetrahydro-1H-pyrrolizin-7a(5H)-yl)methoxy)-8-fluoro-4-(1-(methoxymethyl)-3,8-diazabicyclo[3.2.1]octan-3-yl)pyrido[4,3-d]pyrimidin-7-yl)-5-ethynyl-6-fluoronaphthalen-2-ol]: the IC50 in the test with AGS (Homo sapiens, AGS, 96 h) was 36.8 nM.
With `C#Cc1c(F)ccc2cc(O)cc(-c3ncc4c(N5C[C@@H]6CC[C@](C7CC7)(C5)N6)nc(OCC56CC(=C)CN5CC(=C)C6)nc4c3F)c12` [Example 12, 4-(4-((1S,5S)-1-cyclopropyl-3,8-diazabicyclo[3.2.1]octan-3-yl)-2-((2,6-dimethylenetetrahydro-1H-pyrrolizin-7a(5H)-yl)methoxy)-8-fluoropyrido[4,3-d]pyrimidin-7-yl)-5-ethynyl-6-fluoronaphthalen-2-ol], the IC50 on KRAS^G12D/cRAF came to 102 nM; in the test with AsPC-1 it was 219 nM; in the test on AGS (Homo sapiens, AGS, 96 h), 104 nM.
The matching figures for `C#Cc1c(F)ccc2cc(O)cc(-c3ncc4c(N5C[C@@H]6CC[C@](CC)(C5)N6)nc(OC[C@@]56CCCN5CC(=C)C6)nc4c3F)c12` [Example 20, 4-(4-((1R,5S)-1-ethyl-3,8-diazabicyclo[3.2.1]octan-3-yl)-8-fluoro-2-(((S)-2-methylenetetrahydro-1H-pyrrolizin-7a(5H)-yl)methoxy)pyrido[4,3-d]pyrimidin-7-yl)-5-ethynyl-6-fluoronaphthalen-2-ol]: 3 nM, 17.2 nM and 3.1 nM.
The matching figures for `C#Cc1c(F)ccc2cc(O)cc(-c3ncc4c(N5C[C@@H]6CC[C@](COC)(C5)N6)nc(OC[C@@]56CCCN5CC(=C)C6)nc4c3F)c12` [Example 22, 5-ethynyl-6-fluoro-4-(8-fluoro-4-((1R,5S)-1-(methoxymethyl)-3,8-diazabicyclo[3.2.1]octan-3-yl)-2-(((S)-2-methylenetetrahydro-1H-pyrrolizin-7a(5H)-yl)methoxy)pyrido[4,3-d]pyrimidin-7-yl)naphthalen-2-ol]: 2.9 nM, 14.3 nM and 21.7 nM.
As to `C#Cc1c(F)ccc2cc(O)cc(-c3ncc4c(N5C[C@@H]6CC[C@](C7CC7)(C5)N6)nc(OC[C@@]56CCCN5CC(=C)C6)nc4c3F)c12` [Example 29, 4-(4-((1S,5S)-1-cyclopropyl-3,8-diazabicyclo[3.2.1]octan-3-yl)-8-fluoro-2-(((S)-2-methylenetetrahydro-1H-pyrrolizin-7a(5H)-yl)methoxy)pyrido[4,3-d]pyrimidin-7-yl)-5-ethynyl-6-fluoronaphthalen-2-ol], the IC50 on KRAS^G12D/cRAF came out at 25 nM; in the test with AsPC-1 it was 102 nM; in the test with AGS (Homo sapiens, AGS, 96 h), 21 nM.
As for `[2H]C([2H])([2H])[C@@]12CC[C@@H](CN(c3nc(OC[C@@]45CCCN4C/C(=C\F)C5)nc4c(F)c(-c5cc(O)cc6ccc(F)c(C#C)c56)ncc34)C1)N2` [Example 53, 5-ethynyl-6-fluoro-4-(8-fluoro-2-(((S,Z)-2-(fluoromethylene)tetrahydro-1H-pyrrolizin-7a(5H)-yl)methoxy)-4-((1R,5S)-1-(methyl-d3)-3,8-diazabicyclo [3.2.1]octan-3-yl)pyrido[4,3-d]pyrimidin-7-yl)naphthalen-2-ol], the IC50 was found to be 16.6 nM at KRAS^G12D/cRAF and 1 nM in the test on AGS (Homo sapiens, AGS, 96 h).
For the molecule `C#Cc1c(F)ccc2cc(O)cc(-c3ncc4c(N5C[C@@H]6CC[C@](CC)(C5)N6)nc(OC[C@@]56CCCN5C/C(=C\F)C6)nc4c3F)c12` [Example 55, 4-(4-((1R,5S)-1-ethyl-3,8-diazabicyclo[3.2.1]octan-3-yl)-8-fluoro-2-(((Z)-2-(fluoromethylene)tetrahydro-1H-pyrrolizin-7a (5H)-yl)methoxy)pyrido[4,3-d]pyrimidin-7-yl)-5-ethynyl-6-fl uoronaphthalen-2-ol], the IC50 at KRAS^G12D/cRAF came out at 3 nM; in the test on AsPC-1 it was 16.3 nM; with AGS, 1.3 nM.
Take `C#Cc1c(F)ccc2cc(O)cc(-c3ncc4c(N5C[C@@H]6CC[C@](COC)(C5)N6)nc(OC[C@@]56CCCN5C/C(=C\F)C6)nc4c3F)c12` [Example 58, 5-ethynyl-6-fluoro-4-(8-fluoro-2-(((Z)-2-(fluoromethylene)tetrahydro-1H-pyrrolizin-7a(5H)-yl)methoxy)-4-((1R,5S)-1-(methoxymethyl)-3,8-diazabicyclo [3.2.1]octan-3-yl)pyrido[4,3-d]pyrimidin-7-yl)naphthalen-2-ol]: the IC50 on KRAS^G12D/cRAF was 6 nM; in the test on AsPC-1 it was 21.8 nM; in the test with AGS (Homo sapiens, AGS, 96 h), 1.7 nM.
With `[2H]C([2H])([2H])Oc1nc(-c2cc(O)cc3ccc(F)c(C#C)c23)c(F)c2nc(OCC34CC(=C)CN3CC(=C)C4)nc(N3CC4CCC(CC)(C3)N4)c12` (centres unmarked) [Example 201, 4-(2-((2,6-dimethylenetetrahydro-1H-pyrrolizin-7a(5H)-yl)methoxy)-4-(1-ethyl-3,8-diazabicyclo[3.2.1]octan-3-yl)-8-fluoro-5-(methoxy-d3)pyrido[4,3-d]pyrimidin-7-yl)-5-ethynyl-6-fluoronaphthalen-2-ol], the IC50 in the test with AGS (Homo sapiens, AGS, 96 h) was determined as 21.6 nM.
In the case of `[2H]C([2H])([2H])Oc1nc(-c2cc(O)cc3ccc(F)c(C#C)c23)c(F)c2nc(OC[C@@]34CCCN3C/C(=C\F)C4)nc(N3CC4CCC(CC)(C3)N4)c12` (stereo partly drawn) [Example 204, 4-(4-(1-ethyl-3,8-diazabicyclo [3.2.1]octan-3-yl)-8-fluoro-2-(((S,Z)-2-(fluoromethylene)tetrahydro-1H-pyrrolizin-7a(5H)-yl)methoxy)-5-(methoxy-d3)pyrido [4,3-d]pyrimidin-7-yl)-5-ethynyl-6-fluoronaphthalen-2-ol], the 50% inhibitory concentration (IC50) at KRAS^G12D/cRAF worked out at 3.9 nM; in the test with AGS (Homo sapiens, AGS, 96 h), 5.1 nM.
